Tests used:
Assay in all cases: relative viability (nuclei count vs DMSO), 5 days (fraction); higher = more cells survive
HCC-827 = tested on: HCC-827
Procedure, shortened: (§1)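 Cells from lung cancer lines were seeded into 1536-well plates and, one day later, dosed by pin tool. Treatments were either a single drug or a fixed dose of an anchor drug with five library-drug doses (not always all listed) in √10 steps. After 5 days, nuclei were stained in a one-step fixation (final 0.05% Triton X-100, 1% formaldehyde, 1 ug/ml Hoechst) and counted on 4× images, and relative viability is the treated-to-vehicle nuclei ratio, as the median of duplicate plates.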

NCI-H1437 = tested on: NCI-H1437
Procedure, shortened: as §1

NCI-H2126 = tested on: NCI-H2126
Procedure, shortened: as §1

COR-L 105 = tested on: COR-L 105
Procedure, shortened: as §1

LCLC-97TM1 = tested on: LCLC-97TM1
Procedure, shortened: as §1

NCI-H1666 = tested on: NCI-H1666
Procedure, shortened: as §1

NCI-H2085 = tested on: NCI-H2085
Procedure, shortened: as §1

201T = tested on: 201T
Procedure, shortened: as §1

LU99A = tested on: LU99A
Procedure, shortened: as §1

NCI-H358 = tested on: NCI-H358
Procedure, shortened: as §1

HCC-44 = tested on: HCC-44
Procedure, shortened: as §1

Clc1ccc(Nc2nnc(Cc3ccncc3)c3ccccc23)cc1 [Vatalanib] + C[C@@H](Oc1cc(-c2cnn(C3CCNCC3)c2)cnc1N)c1c(Cl)ccc(F)c1Cl [Crizotinib] (partner 1 µM)
relative viability (HCC-827; first compound 0.04 µM): 0.845
relative viability (HCC-827; first compound 0.1265 µM): 0.936
relative viability (HCC-827; first compound 0.4 µM): 0.943
relative viability (HCC-827; first compound 1.265 µM): 0.894
relative viability (HCC-827; first compound 4 µM): 0.853
relative viability (NCI-H1437; first compound 0.04 µM): 0.978
relative viability (NCI-H1437; first compound 0.1265 µM): 0.934
relative viability (NCI-H1437; first compound 0.4 µM): 1.02
relative viability (NCI-H1437; first compound 1.265 µM): 0.886
relative viability (NCI-H1437; first compound 4 µM): 0.958
relative viability (NCI-H2126; first compound 0.04 µM): 0.977
relative viability (NCI-H2126; first compound 0.1265 µM): 1.03
relative viability (NCI-H2126; first compound 0.4 µM): 1.05
relative viability (NCI-H2126; first compound 1.265 µM): 1.07
relative viability (NCI-H2126; first compound 4 µM): 0.992
relative viability (COR-L 105; first compound 0.04 µM): 0.818
relative viability (COR-L 105; first compound 0.1265 µM): 0.677
relative viability (COR-L 105; first compound 0.4 µM): 0.938
relative viability (COR-L 105; first compound 1.265 µM): 0.73
relative viability (COR-L 105; first compound 4 µM): 0.827
relative viability (LCLC-97TM1; first compound 0.04 µM): 0.308
relative viability (LCLC-97TM1; first compound 0.1265 µM): 0.312
relative viability (LCLC-97TM1; first compound 0.4 µM): 0.447
relative viability (LCLC-97TM1; first compound 1.265 µM): 0.386
relative viability (LCLC-97TM1; first compound 4 µM): 0.365
relative viability (NCI-H1666; first compound 0.04 µM): 0.968
relative viability (NCI-H1666; first compound 0.1265 µM): 0.985
relative viability (NCI-H1666; first compound 0.4 µM): 1.06
relative viability (NCI-H1666; first compound 1.265 µM): 0.889
relative viability (NCI-H1666; first compound 4 µM): 0.742
relative viability (NCI-H2085; first compound 0.04 µM): 0.754
relative viability (NCI-H2085; first compound 0.1265 µM): 0.779
relative viability (NCI-H2085; first compound 0.4 µM): 1.04
relative viability (NCI-H2085; first compound 1.265 µM): 0.787
relative viability (NCI-H2085; first compound 4 µM): 0.888
relative viability (201T; first compound 0.04 µM): 1
relative viability (201T; first compound 0.1265 µM): 1.07
relative viability (201T; first compound 0.4 µM): 1.03
relative viability (201T; first compound 1.265 µM): 0.991
relative viability (201T; first compound 4 µM): 1.07
relative viability (LU99A; first compound 0.04 µM): 0.597
relative viability (LU99A; first compound 0.1265 µM): 0.524
relative viability (LU99A; first compound 0.4 µM): 0.63
relative viability (LU99A; first compound 1.265 µM): 0.528
relative viability (LU99A; first compound 4 µM): 0.513
relative viability (NCI-H358; first compound 0.04 µM): 0.641
relative viability (NCI-H358; first compound 0.1265 µM): 0.522
relative viability (NCI-H358; first compound 0.4 µM): 0.8
relative viability (NCI-H358; first compound 1.265 µM): 0.585
relative viability (NCI-H358; first compound 4 µM): 0.602
relative viability (HCC-44; first compound 0.04 µM): 0.836
relative viability (HCC-44; first compound 0.1265 µM): 0.842
relative viability (HCC-44; first compound 0.4 µM): 0.804
relative viability (HCC-44; first compound 1.265 µM): 0.735
relative viability (HCC-44; first compound 4 µM): 0.701
